{"source": "patent US11884675B2", "about": "“Heterocyclic compounds as triggering receptor expressed on myeloid cells 2 agonists and methods of use” (AMGEN INC., priority 2020, dated 2024)", "data": [{"biological_target": "hTREM2 (Homo sapiens, UniProt Q9NZC2)", "sequence (Q9NZC2 19-230)": "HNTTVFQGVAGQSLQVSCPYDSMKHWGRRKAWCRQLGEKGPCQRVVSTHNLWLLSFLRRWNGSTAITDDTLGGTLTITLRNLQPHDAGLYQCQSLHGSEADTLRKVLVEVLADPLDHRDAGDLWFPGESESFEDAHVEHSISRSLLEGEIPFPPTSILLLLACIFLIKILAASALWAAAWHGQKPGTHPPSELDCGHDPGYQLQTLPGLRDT", "sequence (O43914 22-113 partner)": "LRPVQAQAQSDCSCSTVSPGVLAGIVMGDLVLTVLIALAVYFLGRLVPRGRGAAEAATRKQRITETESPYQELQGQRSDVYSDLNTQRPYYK", "test": "TREM2 activity by cellular Syk phosphorylation (AlphaScreen/AlphaLISA) in TREM2/DAP12-HEK cells, used for Examples 1-305", "format": "cell-based", "set-up": "expressed in transfected cells", "settings": "HEK293 Cells", "in_short": "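Phospho-Syk (Tyr525/526) over total Syk quantified by AlphaScreen in lysates of cloned TREM2/DAP12-overexpressing HEK293 cells after 45 min compound treatment at room temperature, 1% final DMSO. Values expressed relative to 100 nM anti-TREM2 antibody (positive) and isotype IgG (negative) controls; curves fitted with 4-parameter logistic model.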", "units": {"EC50": "µM"}, "values": [{"smiles": "Cc1nc2nc(N3CCO[C@@H](c4cnn(C)c4)C3)nc(C3CCC4(CC3)CC4)c2nc1C", "note": "[Example 137, 6,7-dimethyl-2-((2S)-2-(1-methyl-1H-pyrazol-4-yl)-4-morpholinyl)-4-(spiro[2.5]octan-6-yl)pteridine]", "EC50": "≤ 0.05", "hTREM2 Emax": "+++ (Emax>150 and ≤250)"}, {"smiles": "Cc1cc2c(-c3ccc(Cl)cc3F)nc([C@@H]3CCO[C@H](c4cnn(C)c4)C3)nc2nc1C", "note": "(single isomer, unassigned) [Example 226]", "EC50": "0.05 to 0.5", "hTREM2 Emax": "+++ (Emax>150 and ≤250)"}, {"smiles": "Cc1nc2cc(N3CCO[C@@H](c4cnn(C)c4)C3)cc(-c3ccc(F)cc3F)c2nc1C", "note": "[Example 164, 5-(2,4-difluorophenyl)-2,3-dimethyl-7-((2S)-2-(1-methyl-1H-pyrazol-4-yl)-4-morpholinyl) quinoxaline]", "EC50": "≤ 0.05", "hTREM2 Emax": "++++ (Emax>250)"}, {"smiles": "CCn1cc([C@H]2CN(c3cc4nc(C)ccc4c(-c4ccc(Cl)cc4F)n3)CCO2)cn1", "note": "[Example 239, (S)-4-(5-(4-chloro-2-fluorophenyl)-2-methyl-1,6-naphthyridin-7-yl)-2-(1-ethyl-1H-pyrazol-4-yl)morpholine]", "EC50": "3 to 100", "hTREM2 Emax": "+++ (Emax>150 and ≤250)"}, {"smiles": "CCN1Cc2c(cc(N3CCO[C@@H](c4cnn(C)c4)C3)nc2-c2ccc(Cl)cc2F)C1=O", "note": "[Example 121, 4-(4-chloro-2-fluorophenyl)-2-ethyl-6-((2S)-2-(1-methyl-1H-pyrazol-4-yl)-4-morpholinyl)-2,3-dihydro-1H-pyrrolo[3,4-c]pyridin-1-one]", "EC50": "0.05 to 0.5", "hTREM2 Emax": "++++ (Emax>250)"}, {"smiles": "Cc1ncc([C@@H]2CN(c3nc(-c4ccc(Cl)cc4F)c4cc(C)c(C)nc4n3)CCO2)cn1", "note": "(single isomer, unassigned) [Example 106]", "EC50": "0.05 to 0.5", "hTREM2 Emax": "+++ (Emax>150 and ≤250)"}, {"smiles": "Cc1cc2c(nc(N3CCO[C@@H](c4cnn(C5CC5)c4)C3)nc2[C@H]2C[C@H](C(F)(F)F)C2)nc1C", "note": "[Example 113, 2-((2S)-2-(1-cyclopropyl-1H-pyrazol-4-yl)-4-morpholinyl)-6,7-dimethyl-4-(trans-3-(trifluoromethyl)cyclobutyl)pyrido[2,3-d]pyrimidine]", "EC50": "≤ 0.05", "hTREM2 Emax": "++ (Emax>100 and ≤150)"}, {"smiles": "Cn1cc([C@H]2CN(c3cc4ncccc4c(-c4ccc(Cl)cc4F)n3)CCO2)cn1", "note": "[Example 234, (S)-4-(5-(4-chloro-2-fluorophenyl)-1,6-naphthyridin-7-yl)-2-(1-methyl-1H-pyrazol-4-yl)morpholine]", "EC50": "0.5 to 3", "hTREM2 Emax": "+++ (Emax>150 and ≤250)"}, {"smiles": "Cc1ccc2c(-c3ccc(F)cc3F)nc(N3CCO[C@@H](c4cnn(C5CC5)c4)C3)nc2n1", "note": "[Example 92, 2-((2S)-2-(1-cyclopropyl-1H-pyrazol-4-yl)-4-morpholinyl)-4-(2,4-difluorophenyl)-7-methylpyrido[2,3-d]pyrimidine]", "EC50": "≤ 0.05", "hTREM2 Emax": "+++ (Emax>150 and ≤250)"}, {"smiles": "Cc1nc2nc(N3CCO[C@@H](c4cnn(C5CC5)c4)C3)nc(-c3ccc(F)cc3F)c2nc1C", "note": "[Example 32, 2-((2S)-2-(1-cyclopropyl-1H-pyrazol-4-yl)-4-morpholinyl)-4-(2,4-difluorophenyl)-6,7-dimethylpteridine]", "EC50": "≤ 0.05", "hTREM2 Emax": "+++ (Emax>150 and ≤250)"}, {"smiles": "Cc1cc2c(-c3ccc(Cl)cc3F)nc(N3CCO[C@@H](c4cnn(C)c4)C3)nc2nc1C", "note": "[Example 103, 4-(4-chloro-2-fluorophenyl)-6,7-dimethyl-2-((2S)-2-(1-methyl-1H-pyrazol-4-yl)-4-morpholinyl)pyrido[2,3-d]pyrimidine]", "EC50": "≤ 0.05", "hTREM2 Emax": "++++ (Emax>250)"}, {"smiles": "Cc1cc([C@H]2CN(c3nc(C4CCC(F)(F)CC4)c4nc(C)c(C)nc4n3)CCO2)ccn1", "note": "[Example 139, 4-(4,4-difluorocyclohexyl)-6,7-dimethyl-2-((2S)-2-(2-methyl-4-pyridinyl)-4-morpholinyl)pteridine]", "EC50": "≤ 0.05", "hTREM2 Emax": "+++ (Emax>150 and ≤250)"}, {"smiles": "Cc1cc2c(-c3ccc(F)cc3F)nc([C@@H]3CCO[C@H](c4cnn(C)c4)C3)nc2nc1C", "note": "(single isomer, unassigned) [Example 200]", "EC50": "0.5 to 3", "hTREM2 Emax": "+++ (Emax>150 and ≤250)"}, {"smiles": "Cc1nc2nc([C@@H]3CCO[C@@H](c4cnn(C)c4)C3)nc(-c3ccc(Cl)cc3F)c2nc1C", "note": "[Example 179, 4-(4-chloro-2-fluorophenyl)-6,7-dimethyl-2-((2R,4R)-2-(1-methyl-1H-pyrazol-4-yl)tetrahydro-2H-pyran-4-yl)pteridine]", "EC50": "0.5 to 3", "hTREM2 Emax": "++++ (Emax>250)"}, {"smiles": "Cc1ccc(-c2nc([C@@H]3CCO[C@@H](c4cnn(C)c4)C3)nc3nc(C)c(C)cc23)c(F)c1", "note": "[Example 268, 4-(2-fluoro-4-methylphenyl)-6,7-dimethyl-2-((2R,4R)-2-(1-methyl-1H-pyrazol-4-yl)tetrahydro-2H-pyran-4-yl)pyrido[2,3-d]pyrimidine]", "EC50": "0.5 to 3", "hTREM2 Emax": "++++ (Emax>250)"}, {"smiles": "Cc1nc2nc([C@@H]3CCO[C@H](c4cnn(C)c4)C3)nc(-c3ccc(F)cc3F)c2nc1C", "note": "[Example 256, 4-(2,4-difluorophenyl)-6,7-dimethyl-2-((2S,4R)-2-(1-methyl-1H-pyrazol-4-yl)tetrahydro-2H-pyran-4-yl)pteridine]", "EC50": "0.5 to 3", "hTREM2 Emax": "++ (Emax>100 and ≤150)"}, {"smiles": "Cc1nc2nc(N3CCO[C@H]([C@@H]4CCOC4)C3)nc(-c3ccc(F)cc3F)c2nc1C", "note": "(single isomer, unassigned) [Example 35]", "EC50": "0.05 to 0.5", "hTREM2 Emax": "+++ (Emax>150 and ≤250)"}, {"smiles": "Cc1nc2nc([C@@H]3CCO[C@H](c4cnn(C)c4)C3)nc(-c3ccc(Cl)cc3F)c2nc1C", "note": "(single isomer, unassigned) [Example 177]", "EC50": "0.5 to 3", "hTREM2 Emax": "+++ (Emax>150 and ≤250)"}, {"smiles": "Cc1cc([C@@H]2CN(c3nc4nc(C)c(C)nc4c([C@H]4C[C@H](C(F)(F)F)C4)n3)CCO2)cnn1", "note": "[Example 52, 6,7-dimethyl-2-((2R)-2-(6-methyl-4-pyridazinyl)-4-morpholinyl)-4-(trans-3-(trifluoromethyl)cyclobutyl)pteridine]", "EC50": "0.05 to 0.5", "hTREM2 Emax": "+++ (Emax>150 and ≤250)"}, {"smiles": "Cc1nc2cc([C@@H]3CCO[C@H](c4cnn(C)c4)C3)nc(-c3ccc(F)cc3F)c2nc1C", "note": "[Example 257, 5-(2,4-difluorophenyl)-2,3-dimethyl-7-((2S,4R)-2-(1-methyl-1H-pyrazol-4-yl)tetrahydro-2H-pyran-4-yl)pyrido[3,4-b]pyrazine]", "EC50": "0.5 to 3", "hTREM2 Emax": "++ (Emax>100 and ≤150)"}, {"smiles": "Cc1cc([C@H]2C[C@H](c3nc(-c4ccc(Cl)cc4F)c4ccc(C)nc4n3)CCO2)ccn1", "note": "(single isomer, unassigned) [Example 219]", "EC50": "0.05 to 0.5", "hTREM2 Emax": "++++ (Emax>250)"}, {"smiles": "Cc1nc2nc(N3CCO[C@@H](c4cnn(C)c4)C3)nc(C3CC(F)(F)C3)c2nc1C", "note": "[Example 146, 4-(3,3-difluorocyclobutyl)-6,7-dimethyl-2-((2S)-2-(1-methyl-1H-pyrazol-4-yl)-4-morpholinyl) pteridine]", "EC50": "0.5 to 3", "hTREM2 Emax": "++ (Emax>100 and ≤150)"}, {"smiles": "Cc1cc([C@H]2C[C@@H](c3nc4nc(C)c(C)nc4c([C@H]4C[C@H](C(F)(F)F)C4)n3)CCO2)ccn1", "note": "(single isomer, unassigned) [Example 215]", "EC50": "≤ 0.05", "hTREM2 Emax": "+++ (Emax>150 and ≤250)"}]}]}
